The record followed here is PubChem BioAssay (NCI).

Molecules are shown by their SMILES.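 GI50: concentration for 50% inhibition of growth. The concentration for full growth arrest is given as TGI.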

Among the test systems are COLO 205 colon; HL-60(TB) leukemia; NCI-H226 lung; NCI-H322M lung; NCI-H522 lung; SF-268 CNS; SF-295 CNS; SF-539 CNS; SK-MEL-28 melanoma; SK-OV-3 ovarian; SNB-75 CNS; UACC-257 melanoma.
What all share (assay): growth of human tumour cells (NCI), 384-well format

As for `CN1CC[C@@H](c2c(O)cc(O)c3c(=O)cc(-c4ccc(C(F)(F)F)cc4Cl)oc23)[C@@H]1CO`, the GI50 was 18.4 µM with COLO 205 colon; 9.56 µM with HL-60(TB) leukemia; 12.1 µM with NCI-H226 lung; 15.5 µM with NCI-H322M lung; 14 µM in the experiment on NCI-H522 lung; 15.1 µM in the experiment with SF-268 CNS. Also, the GI50 in the experiment with SF-295 CNS was 16.7 µM; in the experiment with SF-539 CNS it was 16.1 µM; in the experiment with SK-MEL-28 melanoma, 13.5 µM; with SK-OV-3 ovarian, 16.3 µM; with SNB-75 CNS, 12.6 µM; in the experiment with UACC-257 melanoma it was 12.4 µM. Further, the TGI was 32.6 µM with COLO 205 colon; 21.9 µM in the experiment with HL-60(TB) leukemia; 26.8 µM with NCI-H226 lung; 29.2 µM in the experiment with NCI-H322M lung; 27.1 µM with NCI-H522 lung; 28.5 µM with SF-268 CNS. Further, the TGI in the experiment with SF-295 CNS is 30.8 µM; in the experiment on SF-539 CNS it was 29.8 µM; in the experiment with SK-MEL-28 melanoma it was 26.4 µM; in the experiment on SK-OV-3 ovarian, 31.1 µM; with SNB-75 CNS it was 25.2 µM; in the experiment with UACC-257 melanoma, 24.9 µM.

For the compound `Cn1c(Nc2ccc(C(F)(F)F)cc2)nc2cc(Oc3ccnc(-c4ncc(C(F)(F)F)[nH]4)c3)ccc21`, the GI50 is 0.122 µM with COLO 205 colon; 0.0386 µM in the experiment with HL-60(TB) leukemia; 1.5 µM in the experiment with NCI-H226 lung; 0.106 µM in the experiment on NCI-H322M lung; 0.0556 µM with NCI-H522 lung; 0.387 µM in the experiment on SF-268 CNS. The GI50 in the experiment on SF-295 CNS is 0.249 µM; with SF-539 CNS, 0.346 µM; with SK-MEL-28 melanoma, 0.046 µM; with SK-OV-3 ovarian, 0.0127 µM; with SNB-75 CNS, 0.0711 µM; with UACC-257 melanoma, 0.137 µM. Moreover, the TGI worked out at 1.42 µM in the experiment with COLO 205 colon; 1.07 µM with HL-60(TB) leukemia; 19.2 µM in the experiment on NCI-H226 lung; 12.6 µM in the experiment with NCI-H322M lung; 11 µM with NCI-H522 lung; 13.3 µM in the experiment on SF-268 CNS. Further, the TGI with SF-295 CNS is 5.66 µM; with SF-539 CNS it was 7.74 µM; with SK-MEL-28 melanoma, 0.408 µM; in the experiment with SK-OV-3 ovarian, 12.5 µM; in the experiment on SNB-75 CNS it was 13 µM; in the experiment with UACC-257 melanoma it was 1.51 µM.
